PMC3388080 (PLoS ONE, 2012)
Marks after values point to notes of the source that are not given here.

System: male Sprague-Dawley rats
Experiment: EEG/EMG/Tcore/LMA telemetry sleep study 1 (SB-334867 vs ZOL)
Type: in vivo, rat
Method: All rodent electroencephalograph (EEG) studies were performed at SRI International. Three groups of eight male Sprague-Dawley rats (300±25 g; Charles River, Wilmington, MA) were implanted with chronic recording devices (F40-EET, Data Sciences Inc., St Paul, MN) for continuous recordings of EEG, electromyograph (EMG), core body temperature (Tcore), and LMA via telemetry as previously described. Data recording and scoring were performed as previously reported (see also Supplemental Material and Methods). The EEG and EMG data were scored in 10 sec epochs for waking (W), rapid eye movement sleep (REM), and non-REM sleep (NR). Tcore and LMA (counts per minute) were analyzed as hourly means. Data from the EEG studies are reported in hourly means such that the hourly time ZT1 refers to the hour between time points ZT0 and ZT1.
For each of the three separate studies, a repeated measures counter-balanced design was employed in which each rat received five separate dosings. […] All dosings were administered ip in a volume of 2 ml/kg. A minimum of 3 d elapsed between doses. Dosing occurred during the middle of the rats’ normal active period at the start of ZT19 and was typically completed within 10 min. Animals were continuously recorded for 6 h prior to dosing and for 18 h following dosing.

## Cc1nc2ccc(NC(=O)Nc3ccnc4cccnc34)cc2o1.Cl [SB-334867, 1-(2-methylbenzoxazol-6-yl)-3-[1], [5]naphthyridin-4-yl-urea hydrochloride]
3 and 30 mg/kg ip, first 4 and 6 h periods
  cumulative NR (in words): increased cumulative NR
6 h Average, 3 mg/kg ip
  NR bout duration: 1.17 ± 0.12 ^+
  REM bout duration: 1.28 ± 0.14^+
  W bout duration: 4.29 ± 0.34
6 h Average, 10 mg/kg ip
  NR bout duration: 1.00 ±0.12 ^+
  REM bout duration: 1.24 ±0.14^+
  W bout duration: 4.19 ±0.30
6 h Average, 30 mg/kg ip
  NR bout duration: 1.18 ± 0.12 ^+
  REM bout duration: 1.05 ± 0.08^+
  W bout duration: 3.87 ± 0.21
6 h Total, 3 mg/kg ip
  Number of NR bouts: 72.88 ± 5.37
  Number of REM bouts: 15.25 ±2.54
  Number of W bouts: 61.5 ±5.45
6 h Total, 10 mg/kg ip
  Number of NR bouts: 76.13 ± 4.99
  Number of REM bouts: 14.38 ± 1.55
  Number of W bouts: 64.13 ± 3.89
6 h Total, 30 mg/kg ip
  Number of NR bouts: 71.38 ± 2.20
  Number of REM bouts: 19.25 ± 1.50*^+
  Number of W bouts: 65.38 ± 3.54
ZT3, 10 and 30 mg/kg ip, vs vehicle
  NR during the subsequent light period (in words): NR decreased
ZT19, 3 mg/kg ip
  NR bout duration: 1.02 ± 0.14^+
  Number of NR bouts: 4.63 ± 2.07
  Number of REM bouts: 0.50 ± 0.33
  Number of W bouts: 2.88 ± 0.93
  REM bout duration: 1.21 ± 0.38^+
  W bout duration: 31.21 ± 8.79
ZT19, 10 mg/kg ip
  NR bout duration: 1.56 ± 0.59
  Number of NR bouts: 7.88 ± 2.52
  Number of REM bouts: 1.00 ± .050
  Number of W bouts: 6.25 ± 1.78
  REM bout duration: 0.95 ± 0.09
  W bout duration: 16.83 ± 6.40
ZT19, 30 mg/kg ip
  NR bout duration: 1.29 ± 0.24
  Number of NR bouts: 7.75 ± 1.93
  Number of REM bouts: 1.50 ± 0.46
  Number of W bouts: 5.75 ± 1.10
  REM bout duration: 1.04 ± 0.27
  W bout duration: 13.73 ± 6.71
ZT20, 3 mg/kg ip
  NR bout duration: 1.29 ± 0.15^+
  Number of NR bouts: 16.25 ± 2.43
  Number of REM bouts: 4.38 ± 1.21
  Number of W bouts: 12.25 ± 2.06
  REM bout duration: 1.34 ± 0.16^+
  W bout duration: 3.39 ± 0.78
ZT20, 10 mg/kg ip
  NR bout duration: 1.14 ± 0.12^+
  Number of NR bouts: 17.50 ± 3.34
  Number of REM bouts: 4.38 ± 1.19
  Number of W bouts: 13.88 ± 2.94
  REM bout duration: 1.16 ± 0.14^+
  W bout duration: 9.58 ± 7.23
ZT20, 30 mg/kg ip
  NR bout duration: 1.41 ± 0.26^+
  Number of NR bouts: 13.75 ± 1.79
  Number of REM bouts: 3.88 ± 0.99
  Number of W bouts: 12.63 ± 1.53
  REM bout duration: 1.27 ± 0.14^+
  W bout duration: 3.30 ± 0.88
ZT21, 3 mg/kg ip
  NR bout duration: 1.45 ± 0.28
  Number of NR bouts: 20.75 ± 2.40
  Number of REM bouts: 5.63 ± 0.65
  Number of W bouts: 16.38 ± 1.96
  REM bout duration: 1.28 ± 0.18
  W bout duration: 1.44 ± 0.20
ZT21, 10 mg/kg ip
  NR bout duration: 1.13 ± 0.25
  Number of NR bouts: 18.13 ± 2.03
  Number of REM bouts: 3.75 ± 0.82
  Number of W bouts: 14.88 ± 1.83
  REM bout duration: 1.38 ± 0.21
  W bout duration: 2.72 ± 0.50
ZT21, 30 mg/kg ip
  NR bout duration: 1.27 ± 0.16
  Number of NR bouts: 16.75 ± 2.30
  Number of REM bouts: 5.63 ± 1.10
  Number of W bouts: 13.00 ± 1.90
  REM bout duration: 1.04 ± 0.11
  W bout duration: 2.98 ± 0.68
ZT21 at 30 mg/kg and ZT24 at 3 mg/kg
  NR bout duration (in words): increased NR bout duration
ZT22, 3 mg/kg ip
  NR bout duration: 0.82 ± 0.13
  Number of NR bouts: 12.75 ± 2.22
  Number of REM bouts: 2.75 ± 1.10
  Number of W bouts: 13.38 ± 2.85
  REM bout duration: 1.10 ± 0.27
  W bout duration: 6.85 ± 3.36
ZT22, 10 mg/kg ip
  NR bout duration: 0.86 ± 0.10
  Number of NR bouts: 17.13 ± 2.47
  Number of REM bouts: 3.13 ± 0.67
  Number of W bouts: 14.13 ± 1.81
  REM bout duration: 1.16 ± 0.25
  W bout duration: 3.15 ± 0.53
ZT22, 30 mg/kg ip
  NR bout duration: 1.19 ± 0.23
  Number of NR bouts: 13.13 ± 2.17
  Number of REM bouts: 3.38 ± 1.03
  Number of W bouts: 16.00 ± 2.00
  REM bout duration: 1.25 ± 0.22
  W bout duration: 2.75 ± 0.54
ZT23, 3 mg/kg ip
  NR bout duration: 0.77 ± 0.08
  Number of NR bouts: 10.50 ± 2.01
  Number of REM bouts: 1.00 ± 0.42
  Number of W bouts: 9.00 ± 1.66
  REM bout duration: 0.63 ± 0.29
  W bout duration: 6.72 ± 1.58
ZT23, 10 mg/kg ip
  NR bout duration: 0.77 ± 0.13
  Number of NR bouts: 9.88 ± 1.88
  Number of REM bouts: 1.50 ± 0.63
  Number of W bouts: 8.88 ± 1.59
  REM bout duration: 1.12 ± 0.34
  W bout duration: 11.56 ± 6.94
ZT23, 30 mg/kg ip
  NR bout duration: 0.80 ± 0.14
  Number of NR bouts: 8.88 ± 2.17
  Number of REM bouts: 2.75 ± 1.08
  Number of W bouts: 8.38 ± 2.00
  REM bout duration: 0.75 ± 0.17
  W bout duration: 12.52 ± 6.85
ZT24, 3 mg/kg ip
  NR bout duration: 1.40 ± 0.24
  Number of NR bouts: 7.63 ± 2.02
  Number of REM bouts: 1.00 ± 0.42
  Number of W bouts: 7.00 ± 1.60
  REM bout duration: 1.13 ± 0.39
  W bout duration: 14.70 ± 7.18
ZT24, 10 mg/kg ip
  NR bout duration: 0.99 ± 0.18
  Number of NR bouts: 5.38 ± 1.45
  Number of REM bouts: 0.63 ± 0.26
  Number of W bouts: 5.25 ± 1.22
  REM bout duration: 0.48 ± 0.16^+
  W bout duration: 16.01 ± 6.44
ZT24, 30 mg/kg ip
  NR bout duration: 1.05 ± 0.12
  Number of NR bouts: 10.88 ± 1.90
  Number of REM bouts: 2.13 ± 0.55
  Number of W bouts: 8.63 ±1.29
  REM bout duration: 0.81 ± 0.12
  W bout duration: 5.39 ± 6.44
High concentration tested, across 6 h
  Tcore (in words): decreased Tcore
